Assay results published in PMC8092340 (Oncotarget, 2021).
“Also recorded” adds a separate entry of the source. Where two headings read alike, the source gives them in different places. Values belong to the compound of their own block, whether it stands above or below them.

Assays:
[1] = Cytotoxicity in the absence of DSB ligands (CT), Hoechst cell count; format: cell-based, human; settings: human, EJ-DR U2OS cells, no DSB ligands
Procedure: (§4) In addition to quantifying HR and alt-NHEJ activities, cytotoxicity in the absence of DSB ligands (CT) was also evaluated by quantifying the number of Hoeschst 33342-stained cells, allowing us to better understand the margin between on-target and presumable off-target, DNA repair-independent effects. IC50 values of HR inhibition, alt-NHEJ inhibition, and CT were used to calculate the “selectivity index” (SI) (defined as the ratio of CT IC50/alt-NHEJ IC50) and alt-NHEJ selectivity defined as HR IC50/alt-NHEJ IC50. […] (Figure 1E).
(§5) The EJ-DR cell line was cultured in high glucose Dulbecco’s modified Eagle’s medium (DMEM; Thermo Fisher Scientific) with L-glutamine containing 10% tetracycline-free (tet-free) fetal bovine serum (FBS; Takara Bio Inc. and Atlanta Biologics) and 1% Penicillin Streptomycin (Thermo Fisher Scientific). […] All cells were maintained at 37°C with 5% CO2.
(§6) The EJ-DR cells were plated in 384-well imaging plates at 2500 cells/well. 24 hours later, the DSB ligands, Triamcinolone Acetonide (TA; Sigma-Aldrich Co., LLC) and Shield-1 (Takara Bio Inc.), responsible for inducing the DSBs, were added for a final concentration of 100 nM TA and 1 μM Shield-1. Test compounds were also added at the same time using Echo 550 Acoustic Dispenser (Labcyte). A separate plate was seeded to test for cytotoxicity of the test compounds in the absence of the DSB ligands. […] The DSB ligands were washed out 24 hours after addition. 96 hours after addition of the ligands and test compounds, the media was washed off and cells were incubated with Hoechst nuclear stain in Live Cell Imaging Solution (Thermo Fisher Scientific). Plates were rinsed and prepared for immediate live cell imaging using GE IN Cell 2200 (Cytiva Life Sciences). Images were analyzed using InCell Analyzer software (Cytiva Life Sciences). Nuclei were segmented based on the Hoechst staining, and the intensity of the GFP and RFP signals in control populations were measured and binned into histograms to determine signal intensity threshold. The GFP and RFP intensity of all wells was then analyzed, and the percent of positive cells with GFP and RFP intensity above the threshold was calculated to determine the induction of signal. The DAPI cell counts were used to determine the relative cytotoxicity of test compounds in the absence of induced DNA damage.

CYP2D6 = target: T1, CYP2D6 (Homo sapiens, UniProt P10635); experiment: Cytochrome P450 inhibition assay in human liver microsomes, CYP2D6; format: in vitro ADME; settings: for IC50 / selectivity ratio: human liver microsomes; for selectivity ratio: human, read-out: SICYP 2D6 (selectivity index of CYP, CYP2D6 IC50 to alt-NHEJ IC50), called fold decrease in CYP2D6 inhibition
T1 construct: tissue Eurofins Scientific; host or cells: human liver microsomes
T1 sequence (P10635 whole entry): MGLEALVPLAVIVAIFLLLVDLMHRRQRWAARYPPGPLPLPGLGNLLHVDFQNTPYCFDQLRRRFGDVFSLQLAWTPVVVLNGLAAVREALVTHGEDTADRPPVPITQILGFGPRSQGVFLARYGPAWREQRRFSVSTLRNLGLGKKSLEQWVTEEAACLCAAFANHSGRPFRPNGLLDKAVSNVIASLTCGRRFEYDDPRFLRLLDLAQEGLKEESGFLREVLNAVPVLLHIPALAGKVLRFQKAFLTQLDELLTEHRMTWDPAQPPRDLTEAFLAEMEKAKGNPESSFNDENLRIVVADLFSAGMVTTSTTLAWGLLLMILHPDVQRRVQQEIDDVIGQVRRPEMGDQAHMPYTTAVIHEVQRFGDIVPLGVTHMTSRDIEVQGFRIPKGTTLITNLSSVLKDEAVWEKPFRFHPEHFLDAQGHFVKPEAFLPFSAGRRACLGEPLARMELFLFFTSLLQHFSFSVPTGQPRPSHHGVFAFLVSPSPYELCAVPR
Procedure: (§1) CYP inhibition assays were performed by Eurofins Scientific. Test compounds were incubated with human liver microsomes, followed by compound detection using high performance liquid chromatography with tandem mass spectrometry (HPLC-MS/MS).

[2] = Microsomal half-life study; format: in vitro ADME; settings: mouse, mouse liver microsomes; read-out: mouse liver microsome half-life
[3] = In vivo pharmacokinetic study, plasma
Procedure: (§2) These measurements were used to calculate various pharmacokinetic parameters critical to bioavailability including time to reach maximum concentration (tmax), maximum concentration achieved (Cmax), and half-life (t1/2) (Figure 5C, 5D, Supplementary Table 1).
(§3) Compound concentrations were measured at these time-points using Liquid Chromatography with tandem mass spectrometry (LC-MS-MS). Pharmacokinetic studies were performed by orally dosing test compounds at 30 mg/kg dissolved in 50% PEG400 and 50% water in female athymic nude mice. Plasma and brain tissue concentration were measured using mass spectrometry (MS).

[4] = In vivo pharmacokinetic study, brain tissue; settings: for half-life: female, athymic nude, mouse, po, 30 mg/kg
Procedure: as §2, §3

[5] = cited from earlier work
HR = experiment: EJ-DR 384-well imaging assay, HR (GFP) readout; settings: read-out: HR IC50
Source text: (§7) The EJ-DR system was made in the U2OS cell line, which provides a simultaneous read-out of alt-NHEJ and HR activity in cells in response to induced DSBs. The cell line consists of a repair template and a reporter vector. When both these elements are chromosomally integrated, cleavage of a restriction enzyme site in the repair template, induced by ligand addition, causes a DSB. Depending on which DSB repair pathway is utilized, cells either express GFP if HR is used to repair the break site using the downstream homology template near the restriction enzyme site, or RFP if alt-NHEJ is involved in ligation of the cut ends.
(§8) An overview of the workflow of this assay is presented in Figure 1A, which starts with the addition of the test compounds and DSB ligands, followed by a media wash 24 hours later to terminate DSB induction, and then live cell imaging 96 hours later. After live cell imaging, we quantify the individual intensities of GFP and RFP signal in cells using the IN Cell imager. We then use the intensity measurements of individual cells in each channel and plot these intensities as a histogram to threshold out baseline levels of GFP and RFP intensity in the absence of ligands (Figure 1B and 1C). After applying the threshold, the percent of GFP and RFP-positive cells is calculated as a readout of induction of HR and alt-NHEJ activity, respectively.
(§9) In addition to quantifying HR and alt-NHEJ activities, cytotoxicity in the absence of DSB ligands (CT) was also evaluated by quantifying the number of Hoeschst 33342-stained cells, allowing us to better understand the margin between on-target and presumable off-target, DNA repair-independent effects. IC50 values of HR inhibition, alt-NHEJ inhibition, and CT were used to calculate the “selectivity index” (SI) (defined as the ratio of CT IC50/alt-NHEJ IC50) and alt-NHEJ selectivity defined as HR IC50/alt-NHEJ IC50.
(§10) The EJ-DR cell line was created in the U2OS cells (a human osteosarcoma cell line), and contained a stably integrated EJ-RFP plasmid to measure alt-NHEJ repair and a DR-GFP plasmid to measure HR repair, and has been previously described [9]. The EJ-DR cell line was cultured in high glucose Dulbecco’s modified Eagle’s medium (DMEM; Thermo Fisher Scientific) with L-glutamine containing 10% tetracycline-free (tet-free) fetal bovine serum (FBS; Takara Bio Inc. and Atlanta Biologics) and 1% Penicillin Streptomycin (Thermo Fisher Scientific). Tet-free FBS was used to prevent any expression of the tetracycline-inducible EJ-RFP system from residual tetracycline found in most commercially available FBS. All cells were maintained at 37°C with 5% CO2.
(§11) The EJ-DR cells were plated in 384-well imaging plates at 2500 cells/well. 24 hours later, the DSB ligands, Triamcinolone Acetonide (TA; Sigma-Aldrich Co., LLC) and Shield-1 (Takara Bio Inc.), responsible for inducing the DSBs, were added for a final concentration of 100 nM TA and 1 μM Shield-1. Test compounds were also added at the same time using Echo 550 Acoustic Dispenser (Labcyte). A separate plate was seeded to test for cytotoxicity of the test compounds in the absence of the DSB ligands. […] The DSB ligands were washed out 24 hours after addition. 96 hours after addition of the ligands and test compounds, the media was washed off and cells were incubated with Hoechst nuclear stain in Live Cell Imaging Solution (Thermo Fisher Scientific). Plates were rinsed and prepared for immediate live cell imaging using GE IN Cell 2200 (Cytiva Life Sciences).

alt-NHEJ = experiment: EJ-DR 384-well imaging assay, alt-NHEJ (RFP) readout; settings: for Selectivity Index (HR IC50/alt-NHEJ IC50) / selectivity index SI (CT IC50/alt-NHEJ IC50): ratio; for Selectivity Index (HR IC50/alt-NHEJ IC50): Supplementary Table 2
Source text: as §7, §8, §9, §10, §11

EJ-DR U2OS cells = experiment: Cytotoxicity in the absence of DSB ligands (CT), Hoechst cell count; format: cell-based, human; settings: Homo sapiens, U2OS; Supplementary Table 2, mean ± SEM of four technical replicates
Procedure: as §4, §5, §6

L type Cav 1.2 = target: T2, L type Cav 1.2 (Homo sapiens, UniProt Q13936); experiment: Calcium channel blocking study, L-type; format: cell-based; settings: CHO cells stably expressing the channel
T2 construct: host or cells: CHO
Procedure: (§12) Calcium channel blocking studies were performed by Charles River Laboratories in Chinese Hamster Ovary (CHO) and HEK293 cell lines stably expressing L-Type and T-type calcium channels, respectively, under tetracycline induction in accordance with a previously published study [46]. Data acquisition and analysis was performed using the IonWorks Quattro™ or Barracuda system software (Molecular Devices Corporation).

T type Cav 3.1 = target: T3, T type Cav 3.1 (Homo sapiens, UniProt O43497); experiment: Calcium channel blocking study, T-type Cav3.1; format: cell-based; settings: HEK293 cells stably expressing the channel
T3 construct: host or cells: HEK293
T3 sequence (O43497 whole entry): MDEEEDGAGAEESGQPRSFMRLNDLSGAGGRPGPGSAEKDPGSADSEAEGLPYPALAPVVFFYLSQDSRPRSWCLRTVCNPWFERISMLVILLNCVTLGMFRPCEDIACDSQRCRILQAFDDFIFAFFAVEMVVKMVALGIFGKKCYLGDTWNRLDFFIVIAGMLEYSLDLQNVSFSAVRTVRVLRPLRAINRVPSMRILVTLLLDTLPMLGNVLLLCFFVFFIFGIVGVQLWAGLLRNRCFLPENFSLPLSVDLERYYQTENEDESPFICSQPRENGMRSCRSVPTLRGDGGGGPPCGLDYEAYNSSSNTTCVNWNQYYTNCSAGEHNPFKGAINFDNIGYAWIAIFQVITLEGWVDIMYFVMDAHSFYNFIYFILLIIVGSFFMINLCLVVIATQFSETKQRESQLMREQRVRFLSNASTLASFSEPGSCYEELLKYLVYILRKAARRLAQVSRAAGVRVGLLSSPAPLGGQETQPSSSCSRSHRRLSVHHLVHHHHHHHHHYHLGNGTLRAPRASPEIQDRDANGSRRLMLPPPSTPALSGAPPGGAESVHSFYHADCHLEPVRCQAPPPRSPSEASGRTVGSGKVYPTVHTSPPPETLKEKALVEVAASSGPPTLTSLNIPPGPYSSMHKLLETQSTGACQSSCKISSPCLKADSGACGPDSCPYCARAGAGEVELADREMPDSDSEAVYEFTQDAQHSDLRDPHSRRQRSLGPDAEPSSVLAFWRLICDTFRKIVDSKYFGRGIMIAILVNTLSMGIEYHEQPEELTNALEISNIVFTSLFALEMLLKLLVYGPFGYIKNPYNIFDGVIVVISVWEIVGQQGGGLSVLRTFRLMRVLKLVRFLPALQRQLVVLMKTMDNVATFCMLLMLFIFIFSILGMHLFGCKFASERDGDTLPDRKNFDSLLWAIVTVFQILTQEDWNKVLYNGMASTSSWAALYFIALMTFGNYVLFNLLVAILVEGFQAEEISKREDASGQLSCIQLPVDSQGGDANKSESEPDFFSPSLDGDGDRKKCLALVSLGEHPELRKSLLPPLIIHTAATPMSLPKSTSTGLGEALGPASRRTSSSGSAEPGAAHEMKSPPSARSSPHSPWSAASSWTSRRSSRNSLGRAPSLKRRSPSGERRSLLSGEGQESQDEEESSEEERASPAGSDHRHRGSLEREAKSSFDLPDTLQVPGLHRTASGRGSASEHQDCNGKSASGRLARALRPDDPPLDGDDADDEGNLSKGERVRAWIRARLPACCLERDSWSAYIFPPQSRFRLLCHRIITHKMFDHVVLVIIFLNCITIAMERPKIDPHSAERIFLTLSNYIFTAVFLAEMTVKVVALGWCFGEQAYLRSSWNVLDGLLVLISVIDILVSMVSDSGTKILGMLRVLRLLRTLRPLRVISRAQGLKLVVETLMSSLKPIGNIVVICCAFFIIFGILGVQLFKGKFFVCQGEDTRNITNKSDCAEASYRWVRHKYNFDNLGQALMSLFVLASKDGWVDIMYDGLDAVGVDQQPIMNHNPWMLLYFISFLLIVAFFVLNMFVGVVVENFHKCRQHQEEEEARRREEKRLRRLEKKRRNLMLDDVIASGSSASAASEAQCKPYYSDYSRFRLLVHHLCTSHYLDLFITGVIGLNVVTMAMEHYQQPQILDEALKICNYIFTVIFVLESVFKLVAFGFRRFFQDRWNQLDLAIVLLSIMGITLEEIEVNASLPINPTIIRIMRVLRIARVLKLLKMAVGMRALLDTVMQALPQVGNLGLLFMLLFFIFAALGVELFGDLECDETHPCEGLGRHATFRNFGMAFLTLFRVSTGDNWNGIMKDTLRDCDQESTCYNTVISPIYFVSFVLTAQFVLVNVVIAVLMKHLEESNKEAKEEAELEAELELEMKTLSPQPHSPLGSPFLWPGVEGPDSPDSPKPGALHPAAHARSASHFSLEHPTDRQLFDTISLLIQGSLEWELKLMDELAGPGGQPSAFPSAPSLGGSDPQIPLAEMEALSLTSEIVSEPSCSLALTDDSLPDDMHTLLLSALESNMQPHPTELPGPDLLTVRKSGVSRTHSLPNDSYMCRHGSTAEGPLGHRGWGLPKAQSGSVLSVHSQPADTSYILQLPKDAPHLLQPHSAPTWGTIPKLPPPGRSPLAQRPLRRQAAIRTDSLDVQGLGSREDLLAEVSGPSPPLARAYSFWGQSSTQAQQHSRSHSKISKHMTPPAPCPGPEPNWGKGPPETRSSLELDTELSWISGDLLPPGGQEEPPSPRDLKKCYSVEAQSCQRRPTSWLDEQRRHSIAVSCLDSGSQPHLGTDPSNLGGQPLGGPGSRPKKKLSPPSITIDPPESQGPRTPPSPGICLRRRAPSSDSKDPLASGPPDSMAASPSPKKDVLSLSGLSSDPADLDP
Procedure: as §12

T type Cav 3.2 = target: T4, T type Cav 3.2 (Homo sapiens, UniProt O95180); experiment: Calcium channel blocking study, T-type Cav3.2; format: cell-based; settings: HEK293 cells stably expressing the channel
T4 construct: host or cells: HEK293
Procedure: as §12

T type Cav 3.3 = target: T5, T type Cav 3.3 (Homo sapiens, UniProt Q9P0X4); experiment: Calcium channel blocking study, T-type Cav3.3; format: cell-based; settings: HEK293 cells stably expressing the channel
T5 construct: host or cells: HEK293
Procedure: as §12

CYP3A4 = target: T6, CYP3A4 (Homo sapiens, UniProt P08684); experiment: Cytochrome P450 inhibition assay in human liver microsomes, CYP3A4; format: in vitro ADME; settings: for IC50 / selectivity ratio: human liver microsomes; for selectivity ratio: human, read-out: SICYP 3A4 (selectivity index of CYP, CYP3A4 IC50 to alt-NHEJ IC50), called fold decrease in CYP3A4 inhibition
T6 construct: tissue Eurofins Scientific; host or cells: human liver microsomes
T6 sequence (P08684 whole entry): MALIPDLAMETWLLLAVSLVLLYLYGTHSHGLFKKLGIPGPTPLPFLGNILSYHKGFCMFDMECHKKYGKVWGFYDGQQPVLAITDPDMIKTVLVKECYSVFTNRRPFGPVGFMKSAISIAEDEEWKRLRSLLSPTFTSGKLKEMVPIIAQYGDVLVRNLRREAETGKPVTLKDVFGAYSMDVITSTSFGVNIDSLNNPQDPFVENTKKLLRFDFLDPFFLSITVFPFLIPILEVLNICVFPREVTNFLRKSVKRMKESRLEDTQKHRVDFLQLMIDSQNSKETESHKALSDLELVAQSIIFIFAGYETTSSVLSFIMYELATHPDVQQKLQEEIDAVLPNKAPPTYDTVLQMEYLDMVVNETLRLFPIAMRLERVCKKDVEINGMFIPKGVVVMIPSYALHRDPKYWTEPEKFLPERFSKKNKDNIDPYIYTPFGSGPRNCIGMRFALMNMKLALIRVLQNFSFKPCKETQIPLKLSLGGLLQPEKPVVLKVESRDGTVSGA
Procedure: as §1

Human hERG (Kv11.1) = target: T7, Human hERG (Kv11.1) (Homo sapiens, UniProt Q12809); experiment: Automated hERG inhibition patch clamp assay; format: cell-based
T7 construct: host or cells: CHO-K1
T7 sequence (Q12809 whole entry): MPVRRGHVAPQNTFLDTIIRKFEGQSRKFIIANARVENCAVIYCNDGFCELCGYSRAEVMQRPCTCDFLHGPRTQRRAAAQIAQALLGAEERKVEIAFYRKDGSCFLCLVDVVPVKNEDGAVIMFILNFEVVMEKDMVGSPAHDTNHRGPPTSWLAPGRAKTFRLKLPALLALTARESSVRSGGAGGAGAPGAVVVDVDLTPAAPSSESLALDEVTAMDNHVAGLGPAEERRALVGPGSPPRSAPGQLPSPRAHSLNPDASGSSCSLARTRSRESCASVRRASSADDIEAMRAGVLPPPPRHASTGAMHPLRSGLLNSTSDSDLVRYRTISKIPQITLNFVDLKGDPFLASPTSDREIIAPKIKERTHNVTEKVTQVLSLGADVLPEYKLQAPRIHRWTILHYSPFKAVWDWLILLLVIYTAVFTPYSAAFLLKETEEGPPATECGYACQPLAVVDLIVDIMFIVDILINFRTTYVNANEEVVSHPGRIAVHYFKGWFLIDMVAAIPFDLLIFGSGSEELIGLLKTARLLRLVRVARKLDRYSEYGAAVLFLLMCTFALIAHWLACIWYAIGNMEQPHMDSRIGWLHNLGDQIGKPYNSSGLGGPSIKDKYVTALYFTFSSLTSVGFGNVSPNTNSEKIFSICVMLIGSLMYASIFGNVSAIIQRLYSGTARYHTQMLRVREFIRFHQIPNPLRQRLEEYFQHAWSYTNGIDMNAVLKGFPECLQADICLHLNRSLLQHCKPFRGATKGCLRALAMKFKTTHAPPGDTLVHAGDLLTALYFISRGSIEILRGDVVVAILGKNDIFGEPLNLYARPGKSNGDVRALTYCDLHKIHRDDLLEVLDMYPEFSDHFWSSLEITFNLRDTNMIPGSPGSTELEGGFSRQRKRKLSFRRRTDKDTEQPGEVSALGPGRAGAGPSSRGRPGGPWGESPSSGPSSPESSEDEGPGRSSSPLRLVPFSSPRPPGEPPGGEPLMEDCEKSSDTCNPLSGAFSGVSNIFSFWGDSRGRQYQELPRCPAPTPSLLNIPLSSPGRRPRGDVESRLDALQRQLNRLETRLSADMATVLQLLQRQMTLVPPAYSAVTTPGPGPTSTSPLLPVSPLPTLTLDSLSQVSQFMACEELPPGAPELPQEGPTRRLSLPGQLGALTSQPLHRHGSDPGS
Procedure: Automated whole cell voltage clamp hERG inhibition assays were performed in Human hERG (Kv11.1) expressed in CHO-K1 cells optimized for automated patch clamp studies by Sophion Bioscience A/S [47].

[6] = Table 1, read-out: Cytotoxicity IC50
[7] = oral 30 mg/kg, female athymic nude mice
[8] = recurrent GBM patients, mibefradil with hypofractionated RT
[9] = Homo sapiens, U2OS, read-out: alt-NHEJ IC50
[10] = Homo sapiens, read-out: nc-EJ IC50
[11] = Homo sapiens, read-out: alt-NHEJ IC50
[12] = figures, read-out: CT IC50 (cytotoxicity)

Structure (SMILES): COCC(=O)O[C@]1(CCN(C)CCCc2nc3ccccc3[nH]2)CCc2cc(F)ccc2[C@@H]1C(C)C [Mibefradil, mibefradil]
- IC50 at 96 h [1, 6]: 10.5 µM
- IC50 (CYP2D6): 0.6 µM
- half-life [2]: 0.25 h
- half-life ([3]; female, athymic nude, mouse, plasma, po, 30 mg/kg): 2.6 h
- Cmax ([3]; female, athymic nude, mouse, plasma, po, 30 mg/kg, Maximum concentration (Cmax), oral 30 mg/kg, female athymic nude mice, YU252222 given as methyl ester prodrug): 1090 ng/mL
- % AUC Extrapolation [3, 7]: 0.4%
- AUC(0-x)/Dose [3, 7]: 161 ng·h/mL/mg/kg
- Cmax/Dose [3, 7]: 36.3 ng/mL/mg/kg
- Time at which Cmax was observed (tmax) [3, 7]: 1.0 h
- half-life ([4]; brain): ~8 h
- patients showing QT prolongation ([5]; mibefradil phase I trial, ref manuscript under preparation, 12): five out of 19
- QT interval elongation, dose-limiting toxicity [5, 8]: 28%
- sinus bradycardia, dose-limiting toxicity [5, 8]: 28%
- IC50 (HR; Homo sapiens): > 60 µM
- effect on alt-NHEJ and HR in the EJ-DR assay (alt-NHEJ; EJ-DR U2OS cells): selective inhibition of alt-NHEJ over HR without significant cellular cytotoxicity; also recorded: selective inhibition of alt-NHEJ over HR
- IC50 (alt-NHEJ; [9]): ~4 µM
- IC50 (alt-NHEJ; [10]): 3.8 µM

Structure (SMILES): CO[C@H]1C[C@@H]2CC[C@@H](C)[C@@](O)(O2)C(=O)C(=O)N2CCCC[C@H]2C(=O)O[C@H]([C@H](C)C[C@@H]2CC[C@@H](OCCO)[C@H](OC)C2)CC(=O)[C@H](C)/C=C(\C)[C@@H](O)[C@@H](OC)C(=O)[C@H](C)C[C@H](C)/C=C/C=C/C=C/1C [Everolimus]
- IC50 (EJ-DR U2OS cells): 3.17 ± 2.05 µM
- IC50 (HR; Homo sapiens): 0.07 ± 0.03 µM
- IC50 (alt-NHEJ; [11]): 0.05 ± 0.03 µM
- Selectivity Index (HR IC50/alt-NHEJ IC50) (alt-NHEJ): 1.40

Structure (SMILES): O.O=C(O)C(F)(F)F.O=c1[nH]c2ccccc2n1C1CCN(Cc2ccc(-c3nc4cc5[nH]cnc5cc4nc3-c3ccccc3)cc2)CC1 [Akt-1/2 inhibitor]
- IC50 (HR; EJ-DR U2OS cells, text and figures): > 10 µM
- selectivity index SI (CT IC50/alt-NHEJ IC50) (alt-NHEJ): 77.67
- IC50 (alt-NHEJ; read-out: alt-NHEJ IC50, EJ-DR U2OS cells, text and figures): 0.15 µM

Structure (SMILES): CC(C)C(C(=O)NCCCN1CC=C(c2ccc(Cl)cc2)CC1)c1ccc(F)cc1 (stereo not drawn) [YU252386]
- IC50 at 96 h [1, 6]: 17.9 µM
- IC50 (L type Cav 1.2): 5.6 µM
- IC50 (T type Cav 3.1): 0.9 µM
- IC50 (T type Cav 3.2): 0.9 µM
- IC50 (T type Cav 3.3): 1.1 µM
- IC50 (CYP3A4): 17.9 µM
- selectivity ratio (CYP3A4; ratio): 16.9
- SICYP 3A4 (selectivity index of CYP, CYP3A4 IC50 to alt-NHEJ IC50), called fold decrease in CYP3A4 inhibition (CYP3A4; ratio): ~ 17
- IC50 (CYP2D6): 0.87 µM
- selectivity ratio (CYP2D6; ratio): 0.82
- half-life ([3]; female, athymic nude, mouse, in vivo, po, 30 mg/kg): 4.01 h
- % AUC Extrapolation [3, 7]: 7.5%
- AUC(0-x)/Dose [3, 7]: 45.0 ng·h/mL/mg/kg
- Cmax/Dose [3, 7]: 11.3 ng/mL/mg/kg
- Time at which Cmax was observed (tmax) [3, 7]: 1.0 h
- plasma concentration compared with mibefradil [3, 7]: ~ 0.3 fold
- Area under concentration vs time curve (AUC) (0-x) ([3]; oral 30 mg/kg, female athymic nude mice, YU252222 given as methyl ester prodrug): 1350 ng·h/mL
- half-life ([4]; in vivo): ~2.5 h
- brain concentration relative to the alt-NHEJ IC50 [4, 7]: ~ 3 fold
- brain exposure compared to mibefradil [4, 7]: ~ 8 fold
- percent coverage of the in vitro alt-NHEJ IC50 at the Cmax in the brain [4, 7]: 300%
- IC50 (HR; Homo sapiens): > 60 µM
- IC50 (alt-NHEJ; [9]): 1.06 µM
- IC50 (alt-NHEJ; [10]): 1.1 µM

Structure (SMILES): CC(C)[C@H]1c2ccc(F)cc2CC[C@]1(O)CCN1C[C@H](Oc2nccc3ccccc23)C[C@H]1CO [YU252223]
- IC50 (Human hERG (Kv11.1); patch clamp, CHO-K1 cells): 6.8 µM
- SIhERG (hERG IC50/alt-NHEJ IC50), called fold reduction in hERG potency (Human hERG (Kv11.1); ratio): 4.14
- IC50 (alt-NHEJ; [9]): 1.64 µM

Structure (SMILES): NC(=O)Nc1cc(-c2cccc(F)c2)sc1C(=O)N[C@H]1CCCNC1 [AZD 7762]
- IC50 (EJ-DR U2OS cells): 0.13 ± 0.01 µM
- IC50 (HR; Homo sapiens): > 60 µM
- IC50 (alt-NHEJ; [11]): > 60 µM

Structure (SMILES): CC(C)[C@H]1c2ccc(F)cc2CC[C@]1(O)CCN(C)CC(O)c1ccccc1 (stereo partly drawn) [YU241553]
- IC50 at 96 h [1, 12]: 24 µM
- IC50 (alt-NHEJ; [9]): 8.87 µM
- selectivity index SI (CT IC50/alt-NHEJ IC50) (alt-NHEJ): 2.71

Structure (SMILES): CC(C)C1c2ccccc2CCN1C(=O)CC1CCN(C(=O)OC(C)(C)C)CC1 (stereo not drawn) [YU241542]
- IC50 at 96 h [1, 12]: > 60 µM
- IC50 (alt-NHEJ; [9]): 41.3 µM
- selectivity index SI (CT IC50/alt-NHEJ IC50) (alt-NHEJ): > 1.45

Second part, led by results:

- IC50 (CYP3A4): 12.6 µM
- IC50 (CYP2D6): 3.5 µM
Structure (SMILES): COCC(=O)OC1(CCN2CC(Oc3nccc4ccccc34)CC2CO)CCc2cc(F)ccc2C1C(C)C (stereo not drawn) [YU252376]
- selectivity ratio (CYP3A4; ratio): 11.4
- selectivity ratio (CYP2D6; ratio): ~3
- SICYP 2D6 (selectivity index of CYP, CYP2D6 IC50 to alt-NHEJ IC50), called fold decrease in CYP2D6 inhibition (CYP2D6; ratio): 3.18
- IC50 (alt-NHEJ; [9]): 1.1 µM

- IC50 (HR; Homo sapiens): 4.4 ± 5.17 µM
Structure (SMILES): NC1(c2ccc(-c3nc4ccn5c(=O)[nH]nc5c4cc3-c3ccccc3)cc2)CCC1 [MK-2206]
- IC50 (EJ-DR U2OS cells): 16.5 ± 2.56 µM
- IC50 (alt-NHEJ; [11]): 0.66 ± 0.31 µM
- Selectivity Index (HR IC50/alt-NHEJ IC50) (alt-NHEJ): 6.67

- IC50 (CYP3A4): 14.5 µM
- IC50 (CYP2D6): 2.3 µM
Structure (SMILES): O=C(NC(CCN1CC(Oc2nccc3ccccc23)CC1CO)c1ccc(F)cc1)C1CCC(F)(F)CC1 (stereo not drawn) [YU253106]
- selectivity ratio (CYP3A4; ratio): 10.3
- selectivity ratio (CYP2D6; ratio): 1.64
- IC50 (alt-NHEJ; [9]): 1.4 µM
